Reference: patent publication US20130012473A1, “COMBINED USE OF PHOSPHOLIPID AND SULFATE GROUPS-CARRYING POLYSACCHARIDES FOR INHIBITING METASTATIC SPREAD” (KTB TUMORFORSCHUNGSGESELLSCHAFT MBH, priority 2010, published 2013)

What was measured:
[1] = tested on: B16.F10 ELN melanoma cells; test: Experimental lung metastasis model, luciferase assay of lung homogenates; format: in vivo, mouse
Procedure: Generation of luciferase expressing B16.F10 melanoma cells: For sensitive detection of metastases in vivo in lung and other murine tissues, stably luciferase-transduced B16.F10 ELN melanoma cells were established as recently described (Bornmann, C. et al., Cancer Chemother. Pharmacol. 61:395-405 (2008)).
Animal experiments: Lung metastases were induced by injecting 3×10^5 cells in 100 μl PBS into the tail vein of male C57BI/6N mice (Charles River Laboratories, Sulzfeld, Germany) (Ludwig, R. J. et al., Cancer Res. 64:2743-2750 (2004)). […] In a further experiment, animals were pre-treated 30 min before cell injection with 50 IU (Ludwig, R. J. et al., Cancer Res. 64:2743-2750 (2004)) unfractionated heparin (Ratiopharm GmbH, Ulm, Germany), followed by injection of either long-term 450 μM LysoPC treated or DMEM control medium cultured B16.F10 ELN cells. Experiments were terminated on day 14 (see establishment of the model—FIG. 9). Tissues were removed and stored as snap frozen samples. Metastatic lesions were quantified by homogenizing the tissues in luciferase lysis buffer and measuring in a luciferase assay (Promega E1501) as described (Jantscheff, P. et al., Establishment of human orthotopic LNCaP prostate cancer xenograft metastases model: Effect of Gemcitabine and GemLip. Clin. Exp. Metastasis: in press (2009); Jantscheff, P. et al., Prostate 69:1151-1163 (2009)).
Example 4: Inhibition of in vivo metastasis of B16.F10 ELN cells pretreated with LysoPC. […] For a sensitive quantitative analysis of metastatic spread in the lung, luciferase-transduced B16.F10 ELN cells were used. […]
To establish the mice metastasis model with luciferase-transduced B16.F10 melanoma cells, metastatic lesions in the lung and other tissues (those strongly supplied with blood, spleen, liver, kidney) were investigated at different time points (6 h, 24 h, 7 d, 14 d, and 19 d). Sensitivity of in vitro detection of metastatic lesions was determined as recently described (Jantscheff, P. et al., Prostate 69:1151-1163 (2009)) and limited corresponding to the detection of about 1000 cells in 1 ml tissue lysate (data not shown). Three to four animals were analyzed at each time point and metastatic lesions in lung and other tissues were determined by in vitro luciferase assay in tissue homogenates (see Material and Methods). As shown in A) significant metastasis could be detected first at day 7 and reached a plateau at day 14 in the lung. […] Therefore, in future experiments the animals were analyzed at day 14 and the experiments were limited to this time frame. Using the same scale, no metastatic lesions were detected in the other organs. […]

B16.F10 cells [2] = test: SACED cell migration assay on fibronectin; format: cell-based, mouse; settings: 450 μM LysoPC, fibronectin layers
Procedure: Quantification of cell motility: Cell migration of B16.F10 cells cultivated on fibronectin (Sigma-Aldrich Chemie) covered dishes was determined with or without LysoPC. […] (Nikon, Dusseldorf, Germany) and an incubation chamber for constant temperature, applying NIS Elements AR 2.30 software and a camera (COOL-1300I; Vosskuhler GmbH, Germany)
Lamella dynamics and cell migration velocity were analyzed by the computer-assisted stroboscopic analysis of cell dynamics (SACED). At least 15 individual cells, incubated with or without LysoPC, were monitored over a period of 10 min by capturing digital images every 2 s. Subsequently, eight areas of interest were marked on each image by lines that crossed the cell lamella. The resulting 1 pixel wide areas were cut and lined up in time space plots that allowed the quantification of relevant motility data (Hinz, B. et al., Exp. Cell. Res. 251:234-243 (1999)).

B16.F10 cells [3] = test: Fatty acid composition of cell lysates by GC analysis; format: cell-based, mouse
Procedure: Determination of fatty acid composition in cells and culture medium: Lipid extraction was performed according to the modified method of Bligh and Dyer (Bligh, E. G. and Dyer, W. J., Can. J. Biochem. Physiol. 37:911-917 (1959). For derivatization, the dried lipid extracts were subjected to methanol and TMSH and heated up to 100° C. for 10 min (Techne Dri Block DB-3D Techne, Stone, UK). Gas chromatography analysis was performed by an HP 5890 Series II Plus equipped with autosampler GC/SFC injector and flame ionisation detector (FID) with helium as carrier gas at 1 ml/min. Oven temperature program started with 150° C. for 3 min, up to 220° C. with a rate of 5° C./min, 220° C. for 3.5 min, split injection (split flow 100 ml/min, split ratio 1:100), 5 μl of injection volume, injector temperature 260° C. and FID at 280° C. on an Agilent DB-23 column (30 m, 0.25 mm ID, 0.25 μm). Integration of peak areas was performed with the HP software HP GC ChemStation (Rev.A.06.03[509]) running the GC system. Identification of peaks was accomplished by comparison to a fatty acid standard mixture.
Example 3: Cell membrane alterations induced by LysoPC treatment. In order to analyze membrane alterations caused by exogenous LysoPC the kinetics of changed fatty acid profiles of B16.F10 cells were evaluated by GC analysis. […] Between 48 h and 72 h, a plateau was apparently reached (C17:0: ˜55%). […]

[4] = tested on: B16.F10 ELN melanoma cells; test: In vivo bioluminescence imaging of metastatic spread; set-up: species or system mouse; settings: measured once weekly
Procedure: Metastatic spread was also measured once weekly by in vivo bioluminescence as described previously (Jantscheff, P. et al., Prostate 69:1151-1163 (2009)). Overlays of in vivo images and mouse photographs allowed to localize the metastatic lesions in lung and at the injection sites (D: black arrows) even in late images (D: day 14).

## CCCCCCCCCCCCCCCCC(=O)OC[C@@H](O)COP(=O)([O-])OCC[N+](C)(C)C [LysoPC]
[1]; B16.F10 ELN cells treated ex vivo six times with 450 μM LysoPC (long-term), injected i.v., lung luciferase assay day 14
  metastatic lesions in the lung, mean percentage relative to untreated controls (100%): 51.7%
[1]; cells treated twice with 300 μM LysoPC (short-term), day 14
  lung luciferase activity compared to control: slightly but insignificantly enhanced luciferase activity
[1]; long-term 450 μM LysoPC group, day 14
  macroscopically visible metastatic foci on lung surface: clearly smaller numbers of metastatic foci
[1]; short-term 300 μM LysoPC group vs control, day 14
  macroscopically visible metastatic foci on lung surface: no differences were seen between the control and the short-term group
B16.F10 cells [2]
  lamellipodia dynamics (frequencies of protrusion and retraction): attenuated dynamics (p<0.05) of lamellipodia protrusion and retraction
B16.F10 cells [2]; p<0.05
  lamellipodia retraction velocity: slower lamellipodia retraction velocity
B16.F10 cells [3]; 48 h after incubation in LysoPC-free DMEM medium
  reduction of fatty acid ratio after replacing LysoPC medium: 10-15%
B16.F10 cells [3]; repeated feeding (up to six times) every 48 h
  membrane composition on repeated feeding: did not further change the membrane composition
[4]
  quantification of metastatic spread by in vivo bioluminescence, differences LysoPC-treated vs untreated: could not confirm
